Test results published in patent EP0726261A1, “Herbidical 1,2,4 thiadiazoles” (American Cyanamid Company, priority 1995, dated 1996).

Experiments:
Assay type in all cases: in vivo
[1] = tested on: Glycine max; assay: Herbicidal activity, postemergence test (Example 66); settings: post; 1000 g/ha; assessed visually twenty days after spraying
Procedure: (§1) To evaluate their herbicidal activity, compounds according to the invention are tested using a representative range of plants: ZEAMX Zea mays ORYSA Oryza sativa GLXMA Glycine max BEAVA Beta vulgaris LIUUT Linum usitatissimum AVEFA Avena fatua ECHCG Echinochloa crus-galli SINAL Sinapsis alba
(§2) The tests fall into two categories, preemergence and postemergence. The preemergence tests involve spraying a liquid formulation of the compound onto the soil in which the seeds of the plant species mentioned above have recently been sown. The postemergence tests involve spraying a liquid formulation of the compound onto seedling plants of the above species.
(§3) The soil used in the tests is a prepared horticultural loam.
(§4) The formulations used in the tests are prepared from solutions of the test compounds in acetone containing 0.4% by weight of an alkylphenol/ethylene oxide condensate available under the trademark TRITON X-155. These acetone solutions are diluted with water and the resulting formulations applied at dosage levels corresponding to 1000 g of active material per hectare in a volume equivalent to 900 litres per hectare.
(§5) In the preemergence tests, untreated sown soil, and in the postemergence tests, untreated soil bearing seedling plants, are used as controls.
(§6) The herbicidal effects of the test compounds are assessed visually twenty days after spraying the foliage and the soil and are recorded on a 0-9 scale. A rating of 0 indicates growth as untreated control, a rating of 9 indicates death. An increase of 1 unit on the linear scale approximates to an 11% increase in the level of effect.

[2] = tested on: Avena fatua; assay: as above; parameters: key: A rating of 0 indicates growth as untreated control; a rating of 9 indicates death; settings: post; 1000 g/ha; assessed visually twenty days after spraying
Procedure: as §1, §2, §3, §4, §5, §6

[3] = tested on: Zea mays; assay: as above; parameters: key: A rating of 0 indicates growth as untreated control; a rating of 9 indicates death; settings: post; 1000 g/ha; assessed visually twenty days after spraying
Procedure: as §1, §2, §3, §4, §5, §6

[4] = tested on: Linum usitatissimum; assay: as above; parameters: key: A rating of 0 indicates growth as untreated control; a rating of 9 indicates death; settings: post; 1000 g/ha; assessed visually twenty days after spraying
Procedure: as §1, §2, §3, §4, §5, §6

[5] = tested on: Beta vulgaris; assay: as above; parameters: key: A rating of 0 indicates growth as untreated control; a rating of 9 indicates death; settings: post; 1000 g/ha; assessed visually twenty days after spraying
Procedure: as §1, §2, §3, §4, §5, §6

[6] = tested on: Echinochloa crus-galli; assay: as above; parameters: key: A rating of 0 indicates growth as untreated control; a rating of 9 indicates death; settings: post; 1000 g/ha; assessed visually twenty days after spraying
Procedure: as §1, §2, §3, §4, §5, §6

[7] = tested on: Oryza sativa; assay: as above; parameters: key: A rating of 0 indicates growth as untreated control; a rating of 9 indicates death; settings: post; 1000 g/ha; assessed visually twenty days after spraying
Procedure: as §1, §2, §3, §4, §5, §6

[8] = tested on: Sinapsis alba; assay: as above; parameters: key: A rating of 0 indicates growth as untreated control; a rating of 9 indicates death; settings: post; 1000 g/ha; assessed visually twenty days after spraying
Procedure: as §1, §2, §3, §4, §5, §6

[9] = tested on: Avena fatua; assay: Herbicidal activity, preemergence test (Example 66); parameters: key: A rating of 0 indicates growth as untreated control; a rating of 9 indicates death; settings: pre; 1000 g/ha; assessed visually twenty days after spraying
Procedure: as §1, §2, §3, §4, §5, §6

[10] = tested on: Zea mays; assay: as above; parameters: key: A rating of 0 indicates growth as untreated control; a rating of 9 indicates death; settings: pre; 1000 g/ha; assessed visually twenty days after spraying
Procedure: as §1, §2, §3, §4, §5, §6

[11] = tested on: Linum usitatissimum; assay: as above; parameters: key: A rating of 0 indicates growth as untreated control; a rating of 9 indicates death; settings: pre; 1000 g/ha; assessed visually twenty days after spraying
Procedure: as §1, §2, §3, §4, §5, §6

[12] = tested on: Glycine max; assay: as above; parameters: key: A rating of 0 indicates growth as untreated control; a rating of 9 indicates death; settings: pre; 1000 g/ha; assessed visually twenty days after spraying
Procedure: as §1, §2, §3, §4, §5, §6

[13] = tested on: Beta vulgaris; assay: as above; parameters: key: A rating of 0 indicates growth as untreated control; a rating of 9 indicates death; settings: pre; 1000 g/ha; assessed visually twenty days after spraying
Procedure: as §1, §2, §3, §4, §5, §6

[14] = tested on: Echinochloa crus-galli; assay: as above; parameters: key: A rating of 0 indicates growth as untreated control; a rating of 9 indicates death; settings: pre; 1000 g/ha; assessed visually twenty days after spraying
Procedure: as §1, §2, §3, §4, §5, §6

[15] = tested on: Oryza sativa; assay: as above; parameters: key: A rating of 0 indicates growth as untreated control; a rating of 9 indicates death; settings: pre; 1000 g/ha; assessed visually twenty days after spraying
Procedure: as §1, §2, §3, §4, §5, §6

[16] = tested on: Sinapsis alba; assay: as above; parameters: key: A rating of 0 indicates growth as untreated control; a rating of 9 indicates death; settings: pre; 1000 g/ha; assessed visually twenty days after spraying
Procedure: as §1, §2, §3, §4, §5, §6

`CC(NC(=O)c1nsc(-c2ccc(Cl)cc2)n1)c1cccs1` (racemic) [Example 23, (R/S)-5-(4-Chlorophenyl)-[1,2,4]thiadiazole-3-carboxylic acid, [1-(2-thienyl)ethyl]amide] was tested, and the “herbicidal effects on a 0-9 scale, GLXMA” value [1] was 7, the “herbicidal effects on a 0-9 scale, AVEFA” value [2] was 4 and the “herbicidal effects on a 0-9 scale, ZEAMX” value [3] was 0. For the same molecule, the “herbicidal effects on a 0-9 scale, LIUUT” value [4] was 7, the “herbicidal effects on a 0-9 scale, BEAVA” value [5] was 9 and the “herbicidal effects on a 0-9 scale, ECHCG” value [6] was 8. For the same molecule, the “herbicidal effects on a 0-9 scale, ORYSA” value [7] was 0, the “herbicidal effects on a 0-9 scale, SINAL” value [8] was 9 and the “herbicidal effects on a 0-9 scale, AVEFA” value [9] was 0. For the same molecule, the “herbicidal effects on a 0-9 scale, ZEAMX” value [10] was 0, the “herbicidal effects on a 0-9 scale, LIUUT” value [11] was 0 and the “herbicidal effects on a 0-9 scale, GLXMA” value [12] was 0. The “herbicidal effects on a 0-9 scale, BEAVA” value [13] was 0, the “herbicidal effects on a 0-9 scale, ECHCG” value [14] was 0 and the “herbicidal effects on a 0-9 scale, ORYSA” value [15] was 0. The “herbicidal effects on a 0-9 scale, SINAL” value [16] was 0.

In the case of `CC(C)CNC(=O)c1nc(-c2ccc(F)cc2)ns1` [Example 19], the “herbicidal effects on a 0-9 scale, GLXMA” value [1] is reported as 6, the “herbicidal effects on a 0-9 scale, AVEFA” value [2] is reported as 0 and the “herbicidal effects on a 0-9 scale, ZEAMX” value [3] is reported as 0. The “herbicidal effects on a 0-9 scale, LIUUT” value [4] was 2, the “herbicidal effects on a 0-9 scale, BEAVA” value [5] was 8 and the “herbicidal effects on a 0-9 scale, ECHCG” value [6] was 0. For the same molecule, the “herbicidal effects on a 0-9 scale, ORYSA” value [7] was 0, the “herbicidal effects on a 0-9 scale, SINAL” value [8] was 8 and the “herbicidal effects on a 0-9 scale, AVEFA” value [9] was 0. For the same molecule, the “herbicidal effects on a 0-9 scale, ZEAMX” value [10] was 0, the “herbicidal effects on a 0-9 scale, LIUUT” value [11] was 0 and the “herbicidal effects on a 0-9 scale, GLXMA” value [12] was 0. For the same molecule, the “herbicidal effects on a 0-9 scale, BEAVA” value [13] was 0, the “herbicidal effects on a 0-9 scale, ECHCG” value [14] was 0 and the “herbicidal effects on a 0-9 scale, ORYSA” value [15] was 0. For the same molecule, the “herbicidal effects on a 0-9 scale, SINAL” value [16] was 0.

`CC(C)c1nsc(C(=O)NCc2cccs2)n1` [Example 9] was tested, and the “herbicidal effects on a 0-9 scale, GLXMA” value [1] was 2, the “herbicidal effects on a 0-9 scale, AVEFA” value [2] was 0 and the “herbicidal effects on a 0-9 scale, ZEAMX” value [3] was 2. For the same molecule, the “herbicidal effects on a 0-9 scale, LIUUT” value [4] was 2, the “herbicidal effects on a 0-9 scale, BEAVA” value [5] was 7 and the “herbicidal effects on a 0-9 scale, ECHCG” value [6] was 5. For the same molecule, the “herbicidal effects on a 0-9 scale, ORYSA” value [7] was 0, the “herbicidal effects on a 0-9 scale, SINAL” value [8] was 7 and the “herbicidal effects on a 0-9 scale, AVEFA” value [9] was 0. The “herbicidal effects on a 0-9 scale, ZEAMX” value [10] was 0, the “herbicidal effects on a 0-9 scale, LIUUT” value [11] was 0 and the “herbicidal effects on a 0-9 scale, GLXMA” value [12] was 0. The “herbicidal effects on a 0-9 scale, BEAVA” value [13] was 0, the “herbicidal effects on a 0-9 scale, ECHCG” value [14] was 2 and the “herbicidal effects on a 0-9 scale, ORYSA” value [15] was 0. For the same molecule, the “herbicidal effects on a 0-9 scale, SINAL” value [16] was 4.

`CC(C)(C)c1nsc(C(=O)NCc2cccs2)n1` [Example 7] was tested, and the “herbicidal effects on a 0-9 scale, GLXMA” value [1] was 3, the “herbicidal effects on a 0-9 scale, AVEFA” value [2] was 0 and the “herbicidal effects on a 0-9 scale, ZEAMX” value [3] was 0. For the same molecule, the “herbicidal effects on a 0-9 scale, LIUUT” value [4] was 4, the “herbicidal effects on a 0-9 scale, BEAVA” value [5] was 8 and the “herbicidal effects on a 0-9 scale, ECHCG” value [6] was 0. The “herbicidal effects on a 0-9 scale, ORYSA” value [7] was 0, the “herbicidal effects on a 0-9 scale, SINAL” value [8] was 8 and the “herbicidal effects on a 0-9 scale, AVEFA” value [9] was 0. For the same molecule, the “herbicidal effects on a 0-9 scale, ZEAMX” value [10] was 0, the “herbicidal effects on a 0-9 scale, LIUUT” value [11] was 0 and the “herbicidal effects on a 0-9 scale, GLXMA” value [12] was 0. For the same molecule, the “herbicidal effects on a 0-9 scale, BEAVA” value [13] was 0, the “herbicidal effects on a 0-9 scale, ECHCG” value [14] was 0 and the “herbicidal effects on a 0-9 scale, ORYSA” value [15] was 0. For the same molecule, the “herbicidal effects on a 0-9 scale, SINAL” value [16] was 0.

With `CCNC(=O)c1nc(-c2ccc(F)cc2)ns1` [Example 17] the “herbicidal effects on a 0-9 scale, GLXMA” value [1] was 5, the “herbicidal effects on a 0-9 scale, AVEFA” value [2] was 4 and the “herbicidal effects on a 0-9 scale, ZEAMX” value [3] was 2. The “herbicidal effects on a 0-9 scale, LIUUT” value [4] was 2, the “herbicidal effects on a 0-9 scale, BEAVA” value [5] was 7 and the “herbicidal effects on a 0-9 scale, ECHCG” value [6] was 2. The “herbicidal effects on a 0-9 scale, ORYSA” value [7] was 0, the “herbicidal effects on a 0-9 scale, SINAL” value [8] was 8 and the “herbicidal effects on a 0-9 scale, AVEFA” value [9] was 0. The “herbicidal effects on a 0-9 scale, ZEAMX” value [10] was 0, the “herbicidal effects on a 0-9 scale, LIUUT” value [11] was 0 and the “herbicidal effects on a 0-9 scale, GLXMA” value [12] was 0. For the same molecule, the “herbicidal effects on a 0-9 scale, BEAVA” value [13] was 0, the “herbicidal effects on a 0-9 scale, ECHCG” value [14] was 0 and the “herbicidal effects on a 0-9 scale, ORYSA” value [15] was 0. The “herbicidal effects on a 0-9 scale, SINAL” value [16] was 0.
